Experimental data taken from patent US12545653B2, “Compound as PPAR agonist and application thereof” (USA Elixiria Biotech Inc., priority 2019, dated 2026).

How the values were obtained:
[1] = system: MPTP-HCl Parkinson's disease model mice; assay: Parkinson's disease model (MPTP-HCl), beam traversal test; conditions: MPTP-HCl/probenecid mice, 5 mg/kg body weight intraperitoneal daily, 35 days
Protocol: Three month-old male wild type mice were used in the experiment. The treatment lasted for a total of 35 days. […] For all abovementioned groups, Motor skills were assessed on the 36th to 40th days after compound administration. Beam traversal test is a method commonly used in academia to detect movement coordination in animals with Parkinson's disease. […] The mice were first trained for 2 consecutive days, and taught to trained to traverse the length of the beam. On the day of the test, a mesh grid (1 cm squares) of corresponding width was placed over the beam surface leaving a ˜1 cm space between the grid and the beam surface. Animals were then videotaped while traversing the grid-surfaced beam for a total of five trials. An error was counted when, during a forward movement, a forelimb or hindlimb slipped through the grid. The number of errors made per step (referred to as “error per step scores”) was counted. An analysis of variance (ANOVA) and Dunnett post hoc comparison test are used to compare the significance of the differences between different groups of data. The difference is significant with P<0.05.

[2] = system: APP/PS1 transgenic mice; assay: Alzheimer's disease model, eight-arm radial water maze and brain gene expression; assay type: in vivo, mouse; conditions: for number of errors in water maze on the third day: 5 on the first day
[3] = system: klotho gene promoter; assay: In vitro transcriptional activity of klotho gene (KL-Luc-3 luciferase cell line); assay type: cell-based; conditions: KL-Luc-3 cells; for EC50: 16 h, 16 hours incubation
Description: The activities of these carbonyl-containing cyclic compounds are indicated by the increased expression of klotho gene. […] The present invention retains the DNA fragment of the klotho gene promoter, but replaces the DNA sequence of the coding region of the klotho gene with those of luciferase, so that the degree of activation of the klotho gene promoter and the expression of the klotho gene will be sensitively determined by detecting the luciferase luminescence signal.
Klotho is an important downstream gene of PPARγ pathway. The following experiments tested the properties of the compounds in Table 2 and 3 to activate the klotho gene in vitro. First, a stable cell line, KL-Luc, was constructed. The klotho gene carried by the cell line retained the DNA sequence of klotho gene promoter, but the coding sequence of the klotho gene was replaced with luciferase. KL-Luc fragment includes a promoter sequence of the klotho gene (a DNA region of 18,000 base pairs in length upstream of the transcription start site of the gene) and a luciferase-encoding sequence. To construct the KL-Luc sequence containing lentiviral vector, the KL-Luc fragment was cloned into the pDONR vector using BP recombinase, so that the target fragment had attL recombination sites on both sides. Then the KL-Luc fragment was transferred from the pDONR vector to a lentiviral vector (without exogenous promoter) pLenti6/BLOCK-IT-DEST. The constructed lentiviral vector of the target fragment was then transfected into HEK293T cells, and then the KL-Luc gene lentiviral expression vector and the […] were co-transfected into HEK293T cells to perform lentiviral packaging. The virus was harvested, and virus titer was calculated. And the lentivirus was used to infect target cells. The stable strains were screened by adding drugs. Finally, monoclonal cell lines were selected from polyclonal cells by cell cloning. The effective luciferase expression of each monoclonal cell line was determined by quantitative polymerase chain reaction (qPCR). The inventors chose a third monoclonal cell line (KL-Luc-3) to continue the compound screening. The compounds of interest were the compounds in Table 2 and 3. At the same time, rosiglitazone and pioglitazone were used as a control. KL-Luc-3 cells were divided into 96-well plates at 5000 cells in 80 microL per well, cultured in a 37° C. carbon dioxide incubator with serum-free Duchenne's Modified Eagle's Medium (DMEM) for 6 hours, and then the compounds were added to a final concentration of 0, 0.1, 0.3, 1, 3, 10, 30 micromole/L, with each concentration in triplicate. After 16 hours of incubation, the SteadyLite (PerkinElmer, Waltham, MA) and the GloMax Microplate Luminometer (Promega, USA) were used for quantitation of luciferase activity. The amount of luminescence emitted from each well is positively related to the transcriptional activity of the klotho promoter. A three-parameter Sigmoid function curve was used to fit the obtained data. The abscissa represents the logarithmic value of the concentration, and the ordinate represents the percentage of the activity relative to those of the control. […] In Statistical analysis, the coefficient of variation is used to measure the robustness and repeatability of the experiment. […] The difference is significant with P<0.05. EC50 is a parameter of its activity. The lower the EC50 value, the higher the activity of corresponding compound.

[4] = system: HEK 293T cells; assay: Inhibition of reactive oxygen species production (ROS-Glo H2O2 Assay); assay type: cell-based, human; conditions: 18 hours incubation
Protocol: Mitochondrial reactive oxygen species-induced oxidative stress is the source of many diseases. This experiment is used to test whether the carbonyl-containing cyclic compounds provided by the present invention can reduce the production of reactive oxygen species. HEK 293T cells were divided into 96-well plates at 5000 cells per well, cultured in a 37° C. carbon dioxide incubator with serum-free Duchenne's Modified Eagle's Medium (DMEM) for 6 hours, and then representatives for compounds listed in Table 2 and 3 were added to a final concentration of 0, 0.1, 0.3, 1, 3, 10, 30 micromole/L, with each concentration in triplicate. After 18 hours of incubation, the reactive oxygen species detection kit (ROS-Glo™ H2O2 Assay) and the GloMax microplate fluorescence detector (Promega, USA) were used to detect reactive oxygen species production. At the same time, pioglitazone was used as a control. The amount of fluorescence is positively related to the production of reactive oxygen species. A three-parameter Sigmoid function curve was used to fit the obtained data. The abscissa represents the logarithmic value of the concentration, and the ordinate represents the percentage of reduced reactive oxygen species production relative to those of the control. Then EC50 value was calculated with professional software.

[5] = system: dIoN-CCI rat model of trigeminal neuropathic pain; conditions: in vivo
Description: A common rat model of trigeminal neuralgia is a chronic compression injury model (CCI) caused by ligation of the infraorbital nerve (IoN). In the present study, an improved rat model of trigeminal neuropathic pain was used, in which CCI is induced by ligation of distal segment of IoN (dIoN). Wild type male Sprague-Dawley rats with body weight 250 to 260 grams underwent dIoN-CCI surgery experiments. The mechanical threshold of pain in rats without surgery experiments will exceed 6 grams. If the dIoN-CCI surgery is successful, it will reduce the pain threshold to less than 2 grams.
The mice were divided into the following 11 groups with 4 to 5 mice in each group. The formulation used for transdermal treatment is cream. […] The compound administration of each group starts on the third day after successful dIoN-CCI surgery. […] The method for detecting rat facial hypersensitivity is performed using Von Frey filaments. An analysis of variance (ANOVA) and Dunnett post hoc comparison test are used to compare the significance of the differences between different groups of data. The difference is significant with P<0.05.

[6] = 30 days in food, 10 mg/kg body weight/day (donepezil 3 mg/kg body weight/day)
[7] = 10 mg/kg body weight/day, 30 days, RT-PCR

Row | Compound | EC50 [3] [µM] | number of errors per step in beam traversal test compared with disease control group [1] | number of errors in water maze on the third day [2, 6] | other results
1 | CCc1ccc(CC/C=C/c2ccc3c(c2)C(=O)COC3)cc1 [ELB001046, (E)-6-(4-(4-ethylphenyl)but-1-en-1-yl)isochroman-4-one] | – | significantly lower | comparable to that of ELB00824 | EC50 ([4]; Homo sapiens, HEK-293T, 18 h): < 10 µM
2 | CCc1ccc(CC/C=C/c2ccc3c(c2)C(=O)CC3)cc1 [ELB00824, (E)-6-(4-(4-ethylphenyl)but-1-en-1-yl)-2,3-dihydro-1H-inden-1-one] | 1.5 | – | ~1 | side effect at the time of administration [5]: no side effect; expression level of Bcl-xl gene in cerebral cortex and hippocampus compared with disease control group [2, 7]: doubled; expression level of GluN2B gene in cerebral cortex and hippocampus compared with disease control group [2, 7]: doubled; expression level of Gng11 gene in cerebral cortex and hippocampus compared with disease control group [2, 7]: tripled; expression level of MnSOD gene in cerebral cortex and hippocampus compared with disease control group [2, 7]: tripled or quadrupled; expression level of Prx-2 gene in cerebral cortex and hippocampus compared with disease control group [2, 7]: tripled or quadrupled; expression level of klotho gene in cerebral cortex and hippocampus compared with disease control group [2, 7]: 9 folds; reduction in the number of errors (reference memory), third day compared with first day ([2]; 30 days in food, 10 mg/kg body weight/day (donepezil 3 mg/kg body weight/day), eight-arm water maze): significant; induced transcriptional activity of klotho gene relative to pioglitazone [3]: more than 66 folds; induced transcriptional activity of klotho gene relative to rosiglitazone [3]: 6 folds; klotho EC50 as fraction of that of pioglitazone [3]: less than 1/67; klotho EC50 as fraction of that of rosiglitazone [3]: 1/6; inhibition of active oxygen production (up to), compared to the DMSO control ([4]; 0-30 micromole/L): up to 45%

Now from value to compound, other results behind:

Row | EC50 [3] [µM] | Compound | number of errors per step in beam traversal test compared with disease control group [1] | number of errors in water maze on the third day [2, 6] | other results
3 | < 9.7 | COc1ccc(CC/C=C/c2ccc3c(c2)C(=O)CC3)cc1 [ELB001116, (E)-6-(4-(4-methoxyphenyl)but-1-en-1-yl)-2,3-dihydro-1H-inden-1-one] | significantly lower | comparable to that of ELB00824 | –
4 | < 9.7 | CCc1ccc(CC/C=C/c2ccc3c(c2)OCCC3=O)cc1 [ELB001045, (E)-7-(4-(4-ethylphenyl)but-1-en-1-yl)chroman-4-one] | significantly lower | comparable to that of ELB00824 | –
5 | < 9.7 | CCc1ccc(CC/C=C/c2ccc3c(c2)C(=O)CC3)nc1 [ELB001125, (E)-6-(4-(5-ethylpyridin-2-yl)but-1-en-1-yl)-2,3-dihydro-1H-inden-1-one] | significantly lower | comparable to that of ELB00824 | –
6 | < 9.7 | CCc1ccc(OC/C=C/c2ccc3c(c2)C(=O)CC3)cc1 [ELB001115, (E)-6-(3-(4-ethylphenoxy)prop-1-en-1-yl)-2,3-dihydro-1H-inden-1-one] | significantly lower | comparable to that of ELB00824 | –
